This is an account of results in US8119380B2, “Methods and materials for making and using transgenic dicamba-degrading organisms” (Board of Regents of University of Nebraska, priority 1997, dated 2012).

Where “and” joins values, the source holds several entries; their conditions need not be identical. Equal values may be shown once.

For data set [1], the system named is dicamba O-demethylase. Format: biochemical. Conditions: mixture of three partially purified components, 30 minutes at 30° C.; 0.5 mM NADH, 0.5 mM NADPH, 10 mM MgCl2, 0.5 mM FeSO4, 0.2 mM FAD, 0.2 mM FMN. The protocol: (§1) Enzyme assays. […] At specific times, the reactions were stopped by adding 50 μl of 5% (vol/vol) H2SO4.
(§2) The solvent system for running the TLC was chloroform-ethanol-acetic acid (85:10:5 [vol/vol/vol]). The resolved reaction products were visualized and quantified by exposing the TLC plate to a phosphor screen for 24 hours and then scanning the screen in a PhosphorImager SF (Molecular Dynamics, Sunnyvale, Calif.). […] Specific activities were based on the total protein concentration of the assay mixture.
(§3) When a single component was assayed, the other two components were provided in excess.
(§4) Component and cofactor requirements. […] Samples were applied to a Q-Sepharose (Fast Flow) fast protein liquid chromatography column (Pharmacia) in buffer A and eluted with a 100-ml linear gradient of 0 to 0.6 M KCl (for the oxygenase component) or 0 to 1.0 M KCl (for the ferredoxin and reductase components) in 1.5-ml fractions. Appropriate pooled fractions from separate columns for oxygenase purification (fractions 29 to 37), for ferredoxin purification (fractions 30 to 37), or for reductase purification (fractions 26 to 38) were used for the determination of component and cofactor requirements.
(§5) The three components were assayed for O-demethylase activity in various combinations to determine component requirements.
(§6) The amounts of partially purified protein (provided in an optimized ratio) in the reaction mixtures were 85 μg of oxygenase, 55 μg of ferredoxin and 50 μg of reductase. The concentration of cofactors used in the reaction mixtures were 0.5 mM NADH, 0.2 mM FAD, 0.5 mM FeSO4, 10 mM MgCl2, 0.5 mM NADPH, and 0.2 mM FMN.

The target in data set [2] is T1, dicamba O-demethylase (Stenotrophomonas maltophilia, UniProt Q5S3I3).
T1 construct: partially purified O-demethylase enzyme [the 40%-70% (w/v) (NH4)2SO4 fraction from a cleared cell lysate]; endogenous in cells; host or cells: Pseudomonas maltophilia strain DI-6 (cleared cell lysate, ammonium sulfate cut, or Phenyl-/Q-Sepharose fractions)
T1 sequence (Q5S3I3 2-339): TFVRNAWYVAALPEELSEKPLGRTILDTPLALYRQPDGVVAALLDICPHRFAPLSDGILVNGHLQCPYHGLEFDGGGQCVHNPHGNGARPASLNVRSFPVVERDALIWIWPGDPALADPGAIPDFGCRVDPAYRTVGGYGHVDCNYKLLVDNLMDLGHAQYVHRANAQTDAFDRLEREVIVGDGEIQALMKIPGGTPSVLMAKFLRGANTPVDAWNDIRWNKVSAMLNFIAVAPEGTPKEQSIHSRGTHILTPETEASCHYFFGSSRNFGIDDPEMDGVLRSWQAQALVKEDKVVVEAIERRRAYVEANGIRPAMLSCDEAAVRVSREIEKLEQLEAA
The format is biochemical. Conditions: mixed with excess amounts of components I and III; 55 μg partially purified component II or 100 μg highly purified Clostridium ferredoxin. The protocol:
as §1, §2, §3, §4, §5, §6

The next data set relates to COc1c(Cl)ccc(Cl)c1C(=O)O. Description: cells, lysate or membranes named. Conditions: other: partially purified O-demethylase (40%-70% ammonium sulfate fraction), pH 7.0, 30° C., Michaelis-Menten/Lineweaver-Burk fit, duplicate experiments.
The subject of the next data set is plants. The conditions noted are these: cited from earlier work.
Data set [3] has as its target dicamba O-demethylase (Stenotrophomonas maltophilia, UniProt Q5S3I3). The conditions noted are these: cleared cell lysate, less than 1 ppm oxygen, 30° C., within 1 hour.
Protocol: Oxygen requirement. […] The procedures for displacement of oxygen from the reaction mixture were performed at 4° C. Reaction mixtures lacking enzyme were placed in a vial and sealed with a rubber stopper. For displacement of oxygen, the vial was evacuated twice by vacuum and flushed each time with nitrogen. After a third evacuation, the vial was flushed with 90% nitrogen plus 10% hydrogen. The enzyme solution was likewise purged of oxygen (with care taken not to bubble the enzyme solution). Both the reaction mixtures and enzyme solutions were transferred into an anaerobic chamber (95% N2-5% H2 atmosphere). Two hundred forty microliters of cleared cell lysate was injected through the rubber stopper with a microsyringe and gently mixed with 960 μl of oxygen-free reaction mixture. Reactions were carried out at 30° C.
Data set [4] can be described thus: Reductase assays (reduction of cytochrome c or DCIP in the presence of NADH). Format: biochemical. As to the method: The reaction contained 0.5 mM NADH, 0.2 mM FAD (flavin adenine dinucleotide), 50 μM DCIP, 20 mM Tris buffer (pH 8.0), and 10-100 μl of enzyme sample in a total volume of 1 ml. The change in absorbance at 600 nm with time was measured at room temperature. Specific activity was calculated using an extinction coefficient at 600 nm of 21.0 mM^−1cm^−1 for reduced DCIP. Specific activity was expressed as nmol DCIP reduced min^−1 mg^−1 of protein.
In addition, an in situ DCIP assay was used to detect and locate the reductase activity in protein preparations separated on isoelectric focusing (IEF) gels. After electrophoresis of the proteins on an IEF gel, lanes sliced from the gel were washed with 20 ml of cold 20 mM Tris-HCl buffer (pH 8.0). Low melting agarose was dissolved by heating in 10 ml of 20 mM Tris-HCl buffer (pH 8.0) at a final concentration of 1.5% (w/v). When the agarose cooled to near room temperature, it was supplemented with 0.2 mM FAD, 50 μM DCIP, and 0.5 mM NADH. The assay mixture was poured onto a glass plate and allowed to solidify. The gel piece was placed on top of the solidified reaction mixture and allowed to set at room temperature for 15 minutes. If the gel slice contained a protein with reductase activity, a colorless band of reduced DCIP was generated in the blue background of DCIP.

Consider `Cc1cc2nc3c(=O)[nH]c(=O)nc-3n(C[C@H](O)[C@H](O)[C@H](O)COP(=O)(O)O)c2cc1C` [FMN, flavin mononucleotide], for which the “cofactor effect on dicamba O-demethylase activity” value (“cofactor effect” below) with dicamba O-demethylase [1] is “little or no stimulation”.

As to `Cc1cc2nc3c(=O)[nH]c(=O)nc-3n(C[C@H](O)[C@H](O)[C@H](O)COP(=O)(O)OP(=O)(O)OC[C@H]3O[C@@H](n4cnc5c(N)ncnc54)[C@H](O)[C@@H]3O)c2cc1C` [FAD, flavin adenine dinucleotide], the “cofactor effect” value in the data set on dicamba O-demethylase [1] is recorded as “little or no stimulation”. As for `NC(=O)C1=CN([C@@H]2O[C@H](COP(=O)(O)OP(=O)(O)OC[C@H]3O[C@@H](n4cnc5c(N)ncnc54)[C@H](OP(=O)(O)O)[C@@H]3O)[C@@H](O)[C@H]2O)C=CC1` [NADPH], the “cofactor effect” value with dicamba O-demethylase [1] is given as “supported enzyme activity”.

With “ferredoxin from Clostridium: highly purified ferredoxin from Clostridium pasteurianum (AYKIADSCVSCGACASECPVNAISQGDSIFVIDADTCIDCGNCANVCPVGAPVQE; UniProt P00195 2-56, looked up)”, in the data set with dicamba O-demethylase [2], the “rate of conversion of dicamba to 3,6-DCSA (ferredoxin component)” value came out at 0.6 nmol/min/mg. The Km is the substrate concentration at which the rate is half of its maximum. Regarding “dicamba O-demethylase (Stenotrophomonas maltophilia)”, the Km in the data set on COc1c(Cl)ccc(Cl)c1C(=O)O is 9.9 ± 3.9 µM and 10 µM.

As for `O=C(O)c1c(Cl)ccc(Cl)c1O` [3,6-DCSA, 3,6-dichlorosalicylic acid], the herbicidal activity entry in the data set on plants is given as “no herbicidal activity”. Consider `COc1c(Cl)ccc(Cl)c1C(=O)O` [dicamba, 3,6-dichloro-2-methoxybenzoic acid], for which the “conversion of dicamba to 3,6-DCSA under anaerobic conditions” value on dicamba O-demethylase [3] is reported as “virtually no conversion”. As for `NC(=O)C1=CN([C@@H]2O[C@H](COP(=O)(O)OP(=O)(O)OC[C@H]3O[C@@H](n4cnc5c(N)ncnc54)[C@H](O)[C@@H]3O)[C@@H](O)[C@H]2O)C=CC1` [NADH, beta-nicotinamide adenine dinucleotide, reduced form], the “cofactor effect” value in the data set with dicamba O-demethylase [1] is “markedly more effective than NADPH”.

B1: component I: oxygenase component of dicamba O-demethylase (protein)
chain: MTFVRNAWYVAALPEELSEKPLGRTILDTPLALYRQPDGVVAALLDICPHRFAPLSDGILVNGHLQCPYHGLEFDGGGQCVHNPHGNGARPASLNVRSFPVVERDALIWIWPGDPALADPGAIPDFGCRVDPAYRTVGGYGHVDCNYKLLVDNLMDLGHAQYVHRANAQTDAFDRLEREVIVGDGEIQALMKIPGGTPSVLMAKFLRGANTPVDAWNDIRWNKVSAMLNFIAVAPEGTPKEQSIHSRGTHILTPETEASCHYFFGSSRNFGIDDPEMDGVLRSWQAQALVKEDKVVVEAIERRRAYVEANGIRPAMLSCDEAAVRVSREIEKLEQLEAA
modifications: Pseudomonas maltophilia DI-6
notes: oxygenase component of dicamba O-demethylase
As for B1, the “reductase activity with cytochrome c or DCPIP in the presence of NADH” value in data set [4] is recorded as “Neither component I nor component II showed activity”.
